Test systems include A498 renal; MDA-MB-231 breast; MOLT-4 leukemia; M14 melanoma; UO-31 renal; OVCAR-5 ovarian; MDA-MB-435; NCI-H460 lung; HT29 colon; NCI-H522 lung; SF-295 CNS; HCC-2998 colon; HOP-92 NSCLC; SW-620 colon; SK-OV-3 ovarian; LOX IMVI melanoma; T-47D breast; SNB-19 CNS; SF-268 CNS; TK-10 renal.
Common to all, as to test: NCI anticancer screen, dose series, 48 h

Structures are written as SMILES.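 Tested at 5 concentrations; 48 h exposure; 96-well plates; endpoints linearly interpolated, else capped at highest concentration. TGI: total growth inhibition.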

Data on seven compounds can be found in PubChem BioAssay (NCI).

For `c1ccc(C2C3=C(CCCC3)Nc3nc4cc5ccccc5cc4n32)cc1` (stereo not drawn), the TGI in the assay with A498 renal, with MDA-MB-231 breast, with MOLT-4 leukemia, in the assay on M14 melanoma, with UO-31 renal and in the assay on OVCAR-5 ovarian was greater than 100 µM each time. Moreover, the TGI in the assay with MDA-MB-435, with NCI-H460 lung, with HT29 colon, in the assay on NCI-H522 lung, in the assay with SF-295 CNS and in the assay on HCC-2998 colon was greater than 100 µM throughout. Also, the TGI with HOP-92 NSCLC, in the assay with SW-620 colon, in the assay on SK-OV-3 ovarian, with LOX IMVI melanoma, in the assay on T-47D breast and in the assay on SNB-19 CNS was greater than 100 µM throughout. Moreover, the TGI in the assay with SF-268 CNS was greater than 100 µM.
As to `CC(=O)CCNc1ccc(-c2cc(-c3ccc(N(C)C)cc3)nc3ccc4ccccc4c23)cc1`, the TGI in the assay on A498 renal is greater than 100 µM; with MDA-MB-231 breast, greater than 100 µM; in the assay on MOLT-4 leukemia it was greater than 100 µM; in the assay on M14 melanoma, greater than 88.8 µM; with UO-31 renal, greater than 100 µM; in the assay with OVCAR-5 ovarian it was greater than 100 µM. Also, the TGI in the assay on MDA-MB-435, in the assay with NCI-H460 lung, with HT29 colon, in the assay with NCI-H522 lung, in the assay with SF-295 CNS and in the assay on HCC-2998 colon was greater than 100 µM throughout. In addition, the TGI with HOP-92 NSCLC, with SW-620 colon, in the assay with SK-OV-3 ovarian, in the assay on TK-10 renal, in the assay with LOX IMVI melanoma and with T-47D breast was greater than 100 µM in each case. Besides, the TGI in the assay with SNB-19 CNS and in the assay with SF-268 CNS was greater than 100 µM in each case.
With `Cn1c(=O)[nH]c2[nH]c3ccccc3c2c1=O`, the TGI in the assay with A498 renal, in the assay with MDA-MB-231 breast, in the assay on MOLT-4 leukemia, in the assay with M14 melanoma, in the assay with UO-31 renal and in the assay on OVCAR-5 ovarian was greater than 100 µM throughout. Also, the TGI in the assay with MDA-MB-435, in the assay on HT29 colon, in the assay on NCI-H522 lung, with SF-295 CNS, in the assay on HCC-2998 colon and in the assay with HOP-92 NSCLC was greater than 100 µM in each case. The TGI in the assay with SW-620 colon, in the assay on SK-OV-3 ovarian, in the assay on TK-10 renal, with LOX IMVI melanoma, in the assay with T-47D breast and in the assay on SNB-19 CNS was greater than 100 µM each time. Moreover, in the assay with SF-268 CNS, the TGI was greater than 100 µM.
Regarding `O=CN1CCN(C(=O)c2cc(Cl)cc(Cl)c2)C1=S`, the TGI came out at 29.6 µM in the assay on A498 renal; 33.8 µM with MDA-MB-231 breast; 42.7 µM in the assay on MOLT-4 leukemia; 29.2 µM in the assay with M14 melanoma; 44.2 µM in the assay on OVCAR-5 ovarian; 28.1 µM in the assay with MDA-MB-435. The TGI is 51.2 µM in the assay with NCI-H460 lung; 54.5 µM in the assay on HT29 colon; 15.4 µM with NCI-H522 lung; 36 µM with SF-295 CNS; 31.9 µM in the assay on HCC-2998 colon; 31.9 µM in the assay with HOP-92 NSCLC. Moreover, the TGI with SW-620 colon was 49.3 µM; in the assay on SK-OV-3 ovarian it was 32.4 µM; with TK-10 renal it was 28.7 µM; in the assay on LOX IMVI melanoma it was 22.3 µM; with T-47D breast, 36.7 µM; in the assay with SNB-19 CNS it was 35 µM. Also, in the assay with SF-268 CNS, the TGI came out at 30.6 µM.
For the compound `C=CC1ON(C)CCc2cc(OC)c(OC)cc21` (stereo not drawn), the TGI in the assay on A498 renal, in the assay with MDA-MB-231 breast, with MOLT-4 leukemia, in the assay with M14 melanoma, in the assay with UO-31 renal and in the assay on OVCAR-5 ovarian was greater than 100 µM throughout. Further, the TGI in the assay on MDA-MB-435, in the assay on NCI-H460 lung, in the assay with HT29 colon, with NCI-H522 lung, with SF-295 CNS and in the assay with HCC-2998 colon was greater than 100 µM each time. Further, the TGI in the assay on HOP-92 NSCLC, in the assay on SW-620 colon, with TK-10 renal, in the assay on LOX IMVI melanoma, with T-47D breast and in the assay with SNB-19 CNS was greater than 100 µM each time. This compound returned a TGI in the assay with SF-268 CNS greater than 100 µM.
On to `COC(=O)C1=NN2c3ccccc3C(=O)OCCC2(C)C1` (stereo not drawn), for which the TGI in the assay with A498 renal, in the assay on MDA-MB-231 breast, in the assay on MOLT-4 leukemia, in the assay on UO-31 renal, in the assay on OVCAR-5 ovarian and in the assay on MDA-MB-435 was greater than 100 µM in each case. The TGI with NCI-H460 lung, in the assay with HT29 colon, with NCI-H522 lung, in the assay with SF-295 CNS, with HCC-2998 colon and with HOP-92 NSCLC was greater than 100 µM in each case. In addition, the TGI in the assay on SW-620 colon, in the assay on SK-OV-3 ovarian, with TK-10 renal, in the assay on LOX IMVI melanoma, with T-47D breast and with SF-268 CNS was greater than 100 µM in each case.
As to `N#CC1=C(S)N(C2OC(CO)C(O)C(O)C2O)C(c2ccccc2)=CC1c1ccccc1` (stereo not drawn), the TGI with A498 renal was greater than 100 µM; in the assay with MDA-MB-231 breast, greater than 100 µM; in the assay on MOLT-4 leukemia, 86.8 µM; in the assay with M14 melanoma, greater than 100 µM; in the assay with UO-31 renal, greater than 100 µM; in the assay with OVCAR-5 ovarian, greater than 100 µM. The TGI in the assay with MDA-MB-435 was greater than 100 µM; with NCI-H460 lung, greater than 100 µM; in the assay with HT29 colon it was greater than 100 µM; in the assay with NCI-H522 lung, greater than 100 µM; in the assay with SF-295 CNS, greater than 100 µM; in the assay on HCC-2998 colon it was 96.4 µM. The TGI is greater than 100 µM in the assay on HOP-92 NSCLC; greater than 100 µM with SW-620 colon; greater than 100 µM in the assay on TK-10 renal; 86.6 µM in the assay with LOX IMVI melanoma; 96.7 µM in the assay with T-47D breast; greater than 100 µM in the assay on SNB-19 CNS. For the same compound, the TGI with SF-268 CNS is greater than 100 µM.
